Each structure is given as a SMILES string. Calls of active or inactive are those of the source. No cut-off for these calls is given here.

Type in all cases: functional, cell-based
For assay [1], the system named is PC-3. In words: Cytotoxicity against human PC3 cells after 72 hrs by MTT assay. A general note: Tetrazolium assays rely on reduction of a dye to a coloured formazan, in cell work by metabolically active cells.
The test system of another assay is LNCaP. In words: Cytotoxicity against human LNCAP cells after 72 hrs by MTT assay.
The nature of assay [2]: Cytotoxicity against human C4-2B cells after 72 hrs by MTT assay. To be noted: LNCaP C4-2B.
Assay [3] can be described thus: Cytotoxicity against human MDA PCa 2b cells after 72 hrs by MTT assay.
A further assay concerns CWR22R. In words: Cytotoxicity against human 22Rv1 cells after 72 hrs by MTT assay. The settings on record: 22Rv1, 72 h.
For assay [4], the system named is PC-3. The assay can be described thus: Cytotoxicity against human PC3 cells at 150 uM after 72 hrs by MTT assay.
Setting [5] is: Homo sapiens, PC-3, 72 h, read-out: IC50.

For `COc1ccc(/C=C/C(O)=C/C(=O)/C=C/C2=C(C)CCCC2(C)C)cc1O`, the IC50 with PC-3 [1] (setting [5]) is 38.3 µM; in the assay on LNCaP it was 25.9 µM; in assay [2], 23.1 µM.

As to `CCOc1ccc(/C=C(\C(=O)/C=C/C2=C(C)CCCC2(C)C)C(=O)/C=C/c2ccc(OCC)c(OCC)c2)cc1OCC`, the IC50 in the assay with PC-3 [1] (setting [5]) turned out to be 14.1 µM; in the assay with LNCaP, 14.9 µM; in assay [3], 6.8 µM; with CWR22R, 9.3 µM; in assay [2], 4.5 µM.

For the compound `CCn1c2ccccc2c2cc(/C=C(\C(=O)/C=C/C3=C(C)CCCC3(C)C)C(=O)/C=C/c3ccc(O)c(OC)c3)ccc21`, the 50% inhibitory concentration (IC50) in the assay with PC-3 [1] (setting [5]) is 7 µM; in the assay on LNCaP it was 2.3 µM; in assay [3], 8.1 µM; in the assay with CWR22R, 2.4 µM; in assay [2] it was 2.3 µM.

Consider `COc1cc(/C=C(\C(=O)/C=C/C2=C(C)CCCC2(C)C)C(=O)/C=C/c2cc(OC)c(O)c(OC)c2)cc(OC)c1O`, for which the IC50 came to 12.5 µM in the assay on PC-3 [1] (setting [5]); 8.7 µM in the assay with LNCaP; 15.3 µM in assay [3]; 17.6 µM with CWR22R; 8.5 µM in assay [2].

In the case of `COc1cc(/C=C/C(=O)CC(=O)/C=C/c2ccc(O)c(OC)c2)ccc1O` [CURCUMIN], the IC50 in the assay with PC-3 [1] (setting [5]) was determined as 16.8 µM; in the assay on LNCaP, 8.5 µM; in the assay with CWR22R, 18.3 µM; in assay [2], 6.1 µM.

Turning to `COc1cc(/C=C/C(=O)/C(=C/c2ccc3ccccc3n2)C(=O)/C=C/C2=C(C)CCCC2(C)C)ccc1O`, the IC50 with PC-3 [1] (setting [5]) was 15.2 µM; in the assay with LNCaP it was 8.5 µM; with CWR22R it was 5.1 µM; in assay [2], 5.3 µM.

In the case of `CC(=O)/C=C/C1=C(C)CCCC1(C)C` [BETA-IONONE], the IC50 entry is “Not Active” in the assay on PC-3 [1] (pc-3) and 151 µM in the assay with LNCaP. The outcome with PC-3 [4] was inactive.

As to `CC1=C(/C=C/C(=O)/C(=C\c2ccc(O)cc2)C(=O)/C=C/c2ccc(O)cc2)C(C)(C)CCC1`, the IC50 with PC-3 [1] (setting [5]) is 6.7 µM; with LNCaP, 4.5 µM; in assay [3], 4.7 µM; with CWR22R it was 4.7 µM; in assay [2] it was 4 µM.

As to `COc1cc(/C=C/C(O)=C/C(=O)/C=C/C2=C(C)CCCC2(C)C)ccc1O`, the IC50 in the assay on PC-3 [1] (setting [5]) amounted to 15.8 µM; with LNCaP, 20.6 µM; with CWR22R, 10.6 µM; in assay [2], 44.3 µM.

On to `COc1cc(/C=C/C(O)=C/C(=O)/C=C/C2=C(C)CCCC2(C)C)cc(OC)c1O`, for which the IC50 in the assay with PC-3 [1] (setting [5]) was 26.7 µM; in the assay on LNCaP it was 6.2 µM; with CWR22R, 12.2 µM; in assay [2], 9.8 µM.

Turning to `COc1cc(/C=C/C(O)=C/C(=O)/C=C/C2=C(C)CCCC2(C)C)cc(OC)c1OC`, the IC50 in the assay on PC-3 [1] (setting [5]) was over 50 µM; in the assay on LNCaP, 21.4 µM; in the assay on CWR22R, 17.1 µM; in assay [2] it was 11.9 µM.

`COc1ccc(/C=C/C(O)=C/C(=O)/C=C/C2=C(C)CCCC2(C)C)cn1`: the IC50 came to 52.2 µM in the assay with PC-3 [1] (setting [5]) and 25.1 µM in the assay with LNCaP.

One may read the IC50 as the concentration at which inhibition is half-maximal.

The values above are taken from ChEMBL document CHEMBL1153534, “Design and synthesis of androgen receptor antagonists with bulky side chains for overcoming antiandrogen resistance” (J Med Chem, 2009).
